Test results from PubChem BioAssay (NCI).
Values joined by “and” are separate entries in the source; they are usually repeats but may differ in a detail not shown here. Equal entries are not always repeated.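 Dose response: 5 concentrations. Exposure: 48 h. Format: 96-well plates. Endpoint: linear interpolation; highest concentration if not reached. Abbreviation: GI50, concentration required for 50% inhibition of growth. TGI denotes the concentration required for complete inhibition of growth.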 Active and inactive are the calls of the source. No stated cut-off is given here; in the data, active means GI50 below about 0.43 µM; inactive means the rest. Where a SMILES comes first, the peptide text is derived from it. Side-chain parts run from the residue outwards. The star is where a group is joined. Cbz = O=C(OCc1ccccc1)*; Boc = CC(C)(C)OC(=O)*

Columns and labels:
Experiment in all cases: NCI-60 cell line screen, 48 h
HCT-15 colon = tested on: HCT-15 colon
IGROV1 ovarian = tested on: IGROV1 ovarian
M14 melanoma = tested on: M14 melanoma
SF-295 CNS = tested on: SF-295 CNS
SF-539 CNS = tested on: SF-539 CNS
SK-OV-3 ovarian = tested on: SK-OV-3 ovarian
SNB-19 CNS = tested on: SNB-19 CNS
NCI/ADR-RES ovarian = tested on: NCI/ADR-RES ovarian
OVCAR-5 ovarian = tested on: OVCAR-5 ovarian

SMILES | TGI (HCT-15 colon) | TGI (IGROV1 ovarian) | TGI (M14 melanoma) | TGI (SF-295 CNS) | TGI (SF-539 CNS) | TGI (SK-OV-3 ovarian) | TGI (SNB-19 CNS) | TGI (NCI/ADR-RES ovarian) | TGI (OVCAR-5 ovarian) | GI50 (HCT-15 colon) | GI50 (NCI/ADR-RES ovarian) | GI50 (OVCAR-5 ovarian) | outcome (HCT-15 colon) | outcome (M14 melanoma) | outcome (NCI/ADR-RES ovarian) | outcome (OVCAR-5 ovarian) | outcome (SF-295 CNS) | outcome (SF-539 CNS) | outcome (SK-OV-3 ovarian) | outcome (SNB-19 CNS)
COc1ccc(C2=C(Cl)c3cc(OC)c(OC)cc3C2)cc1OC | > 100 µM | > 100 µM | > 100 µM | > 100 µM | > 100 µM | > 100 µM | > 100 µM | – | – | – | – | – | – | – | – | – | – | – | – | –
O=S1(=O)OCCCOS(=O)(=O)C1(Br)Br | > 100 µM | – | > 100 µM | > 100 µM | – | > 100 µM | > 100 µM | > 100 µM | > 100 µM | – | – | – | – | – | – | – | – | – | – | –
O=C(CC(c1ccccc1)C(C(=O)c1ccncc1)C(CC(=O)c1ccncc1)c1ccccc1)c1ccncc1 (stereo not drawn) | > 100 µM | > 100 µM | > 100 µM | 70.3 µM | – | 61.1 µM | > 100 µM | > 100 µM | > 100 µM | – | – | – | – | – | – | – | – | – | – | –
Cc1cn([C@@H]2C[C@H](CO)[C@@H]2O)c(=O)[nH]c1=O | > 100 µM | > 100 µM | – | > 100 µM | > 100 µM | – | – | > 100 µM | > 100 µM | – | – | – | – | – | – | – | – | – | – | –
O=C(CSCC(=O)N/N=C\c1ccccc1F)N/N=C\c1ccccc1F | > 100 µM | > 100 µM | > 100 µM | > 100 µM | > 100 µM | > 100 µM | > 100 µM | 63.1 µM | – | – | – | – | – | – | – | – | – | – | – | –
COc1ccc(CCCN2c3ccccc3Sc3ccccc32)cc1 | > 100 µM | > 100 µM | > 100 µM | > 100 µM | > 100 µM | > 100 µM | > 100 µM | – | > 100 µM | – | – | – | – | – | – | – | – | – | – | –
O=C(NN1C(=O)C(Cl)C1c1ccccc1Cl)c1ccccc1O (stereo not drawn) | > 100 µM | – | > 100 µM | > 100 µM | > 100 µM | > 100 µM | > 100 µM | – | – | – | – | – | – | – | – | – | – | – | – | –
Cc1c2oc3c(C)cc(F)c(C(=O)NC4C(=O)NC(C(C)C)C(=O)N5CCCC5C(=O)N(C)CC(=O)N(C)C(C(C)C)C(=O)OC4C)c3nc-2c(C(=O)NC2C(=O)NC(C(C)C)C(=O)N3CCCC3C(=O)N(C)CC(=O)N(C)C(C(C)C)C(=O)OC2C)c(N)c1=O (stereo not drawn) | > 100 µM | > 100 µM | – | 2.32 µM and 4.16 µM | 1.41 µM and 0.727 µM | > 100 µM | 21.1 µM | 91 µM | 10.2 µM | 0.42 µM | 5.62 µM | 0.0688 µM | – | – | – | – | – | – | – | –
CCN(CC)c1ccc2cc(C(N)=O)c(=Nc3ccc(F)cc3)oc2c1 | > 100 µM | > 100 µM | > 100 µM | > 100 µM | – | > 100 µM | > 100 µM | > 100 µM | > 100 µM | – | – | – | – | – | – | – | – | – | – | –
COc1cccc([C@@H]2CC(=O)c3cc4c(cc3N2)OCO4)c1 | > 100 µM | – | > 100 µM | > 100 µM | > 100 µM | > 100 µM | > 100 µM | > 100 µM | > 100 µM | – | – | – | – | – | – | – | – | – | – | –
Cc1ccc2c(=O)cc(Cc3csc4ccccc34)[nH]c2n1 | 55.8 µM | 30.9 µM | > 100 µM | 93.8 µM | – | > 100 µM | > 100 µM | 52.4 µM | > 100 µM | – | – | – | – | – | – | – | – | – | – | –
CC(C)(C)OC(=O)NC(CCCCNC(=O)CNC(=O)OCc1ccccc1)C(=O)NC(CCCCNC(=O)CNC(=O)OCc1ccccc1)C(=O)NC(CCCCNC(=O)CNC(=O)OCc1ccccc1)C(=O)NC(CCCCNC(=O)CNC(=O)OCc1ccccc1)C(=O)O (stereo not drawn) (Boc-K([Gly-Cbz])K([Gly-Cbz])K([Gly-Cbz])K([Gly-Cbz])-OH; configuration not given here) | > 100 µM | > 100 µM | > 100 µM | – | – | – | > 100 µM | – | > 100 µM | – | – | – | – | – | – | – | – | – | – | –
NCCS(=O)(=O)O | > 100 µM | > 100 µM | > 100 µM | > 100 µM | > 100 µM | – | > 100 µM | > 100 µM | > 100 µM | – | – | – | – | – | – | – | – | – | – | –
O=C1CCCCN1C(=O)c1ccc([N+](=O)[O-])cc1 | > 100 µM | > 100 µM | > 100 µM | > 100 µM | > 100 µM | – | > 100 µM | > 100 µM | > 100 µM | – | – | – | – | – | – | – | – | – | – | –
O=C1O[C@H]2C3C4CCC(C4[C@@H]2I)[C@H]13 (stereo partly drawn) | > 100 µM | > 100 µM | > 100 µM | > 100 µM | > 100 µM | – | > 100 µM | > 100 µM | > 100 µM | – | – | – | – | – | – | – | – | – | – | –
O=P(O)(O)CN1CCNCCN(CP(=O)(O)O)CCN(CP(=O)(O)O)CCNCC1 | – | – | – | – | – | – | – | – | – | – | – | – | inactive | inactive | inactive | inactive | inactive | inactive | inactive | inactive
CC1(C)CN=CC(C)(OCc2ccccc2)C(=O)NC(C)(C)CN=CC(C)(OCc2ccccc2)C(=O)N1 (stereo not drawn) | > 10 µM | > 10 µM | > 10 µM | > 10 µM | > 10 µM | > 10 µM | > 10 µM | – | > 10 µM | – | – | – | – | – | – | – | – | – | – | –
CCC(=O)N1C(=O)C(CC)(CC)C(=O)N1C(=O)CC | > 100 µM | > 100 µM | > 100 µM | > 100 µM | – | > 100 µM | > 100 µM | > 100 µM | > 100 µM | – | – | – | – | – | – | – | – | – | – | –
